One may read the IC50 as the concentration needed to halve the response being measured.

SMILES strings stand for the structures.

Consider one molecule from patent EP4737453A1, “NOVEL SELENOPHENE DERIVATIVES” (Aigen Sciences Inc., priority 2023, dated 2025).

Test [1] has as its target T1, SOS2 and KRAS G12C interaction (Homo sapiens, UniProt Q07890).
T1 sequence (Q07890 1-1332): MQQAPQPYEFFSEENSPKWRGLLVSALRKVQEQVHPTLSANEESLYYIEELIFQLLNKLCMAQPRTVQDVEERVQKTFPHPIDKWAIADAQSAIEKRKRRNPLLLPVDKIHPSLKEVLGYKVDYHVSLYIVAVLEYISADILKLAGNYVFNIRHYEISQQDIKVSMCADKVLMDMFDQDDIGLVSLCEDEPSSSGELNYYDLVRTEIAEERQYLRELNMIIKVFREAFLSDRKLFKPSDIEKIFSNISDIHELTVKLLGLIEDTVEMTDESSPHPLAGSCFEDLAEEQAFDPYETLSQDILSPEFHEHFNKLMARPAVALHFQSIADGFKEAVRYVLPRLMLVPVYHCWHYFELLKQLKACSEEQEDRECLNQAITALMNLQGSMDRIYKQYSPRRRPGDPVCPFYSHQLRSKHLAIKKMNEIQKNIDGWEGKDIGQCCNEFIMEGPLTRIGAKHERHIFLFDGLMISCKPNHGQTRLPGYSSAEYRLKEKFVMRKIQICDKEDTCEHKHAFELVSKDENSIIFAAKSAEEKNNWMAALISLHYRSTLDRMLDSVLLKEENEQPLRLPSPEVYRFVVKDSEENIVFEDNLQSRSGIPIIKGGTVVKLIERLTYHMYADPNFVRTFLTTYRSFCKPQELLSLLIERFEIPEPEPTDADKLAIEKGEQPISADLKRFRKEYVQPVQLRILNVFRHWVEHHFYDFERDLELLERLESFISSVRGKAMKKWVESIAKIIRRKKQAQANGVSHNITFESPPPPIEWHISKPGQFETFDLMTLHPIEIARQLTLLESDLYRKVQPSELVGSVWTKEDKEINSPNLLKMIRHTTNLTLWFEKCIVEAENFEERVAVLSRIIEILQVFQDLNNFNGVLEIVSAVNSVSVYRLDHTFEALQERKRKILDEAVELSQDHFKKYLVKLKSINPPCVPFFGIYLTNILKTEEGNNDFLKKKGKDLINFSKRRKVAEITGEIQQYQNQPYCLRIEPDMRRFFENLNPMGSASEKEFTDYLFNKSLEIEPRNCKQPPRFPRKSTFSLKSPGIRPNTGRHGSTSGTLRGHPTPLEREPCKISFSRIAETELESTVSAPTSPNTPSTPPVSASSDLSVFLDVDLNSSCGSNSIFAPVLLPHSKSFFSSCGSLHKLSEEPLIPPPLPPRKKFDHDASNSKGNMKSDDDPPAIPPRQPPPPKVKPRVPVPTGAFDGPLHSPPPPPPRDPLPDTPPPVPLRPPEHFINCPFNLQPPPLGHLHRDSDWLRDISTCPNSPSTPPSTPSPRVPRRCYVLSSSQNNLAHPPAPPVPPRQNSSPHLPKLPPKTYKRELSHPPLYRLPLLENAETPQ
The test is classed as biochemical.

The subject of the next test is NCI-H358 cell line. Put plainly: Combination effect with targeted anticancer agent, cell viability (CellTiter-Glo, combination index), H358. The class given is cell-based. Particulars: H358 cells, 7 days, Example 1 compound 0.0001 to 0.1 µM, Fig. 1. As for the experimental part:
Test for evaluating the combination effect of targeted anticancer agent- Cell Viability
In this experimental example, we examined whether the compound according to the present invention has a synergistic effect on cancer cell death when used in combination with a target anticancer agent related to another RAS signal transduction pathway.
NCI-H358 cell line (ATCC catalog no. CRL-5807, USA) or EGFR exon 19 deletion cancer cell line PC-9 (Riken, Japan catalog no. RCB4455) were seeded in a well plate (500 cells per well for H358 and 50 cells per well for PC-9) in RPMI1640 (Gibco, USA catalog no. 22400-089) medium containing 10% fetal bovine serum (Excel Bio, USA catalog no. FSP500) and cultured for one day at 37°C under 5% CO2 conditions. […] Cell survival analysis was performed by luminescence analysis using the Promega CellTiter-Glo Luminescent Cell Viability Assay Kit (Promega, catalog number G7573), and luminescence was measured using a PerkinElmer 2014 EnVision plate reader. The inhibition rate was calculated from the measured relative luminescence value in the same manner as in Experimental Example 3, and the combination index (CI) between the compound of the present invention and the target anticancer agent was calculated using the following equation. […]
Background: In ATP-based viability assays light output follows the ATP content of the culture.

Test [2] has as its target T2, SOS1 and KRAS G12D interaction (Homo sapiens, UniProt Q07889).
T2 sequence (Q07889 564-1049 limits assumed): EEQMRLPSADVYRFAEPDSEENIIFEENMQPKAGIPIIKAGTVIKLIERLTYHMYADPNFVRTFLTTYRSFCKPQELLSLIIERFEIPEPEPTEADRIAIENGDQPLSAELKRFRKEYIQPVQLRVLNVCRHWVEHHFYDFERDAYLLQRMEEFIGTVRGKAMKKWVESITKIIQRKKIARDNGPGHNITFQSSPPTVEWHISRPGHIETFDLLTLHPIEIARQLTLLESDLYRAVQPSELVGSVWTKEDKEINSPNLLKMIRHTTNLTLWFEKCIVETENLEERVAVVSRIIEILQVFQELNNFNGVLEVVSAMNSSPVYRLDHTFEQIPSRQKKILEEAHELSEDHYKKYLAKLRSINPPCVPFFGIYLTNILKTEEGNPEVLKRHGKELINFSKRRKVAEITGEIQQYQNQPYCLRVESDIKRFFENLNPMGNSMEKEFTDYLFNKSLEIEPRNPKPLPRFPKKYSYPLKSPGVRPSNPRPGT
The test is classed as biochemical.

For the molecule `CNCc1ccccc1-c1c[se]c([C@@H](C)Nc2nc(C)nc3cc(OC)c(OC)cc23)c1` [Example 1, (R)-6,7-dimethoxyl-2-methyl-N-(1-(4-(2-((methylamino)methyl)phenyl)selenophen-2-yl)ethyl)quinazolin-4-amine], the half-inhibitory concentration (IC50) in test [1] was determined as 24.6 µM; in test [2] it was 0.0084 µM. Also, in the test with NCI-H358 cell line (sotorasib 0.001 to 1 µM), the “synergistic effect inhibiting cell growth in combination with sotorasib” value was “strong synergistic effect”. Moreover, the “synergistic effect inhibiting cell growth in combination with trametinib” value with NCI-H358 cell line (trametinib 0.001 to 0.1 µM) is on record as “strong synergistic effect”.
